Source: patent US9540343B2 (Gilead Sciences, Inc., priority 2011, dated 2017)

Assays:
[1] = tested on: MT-4 cells; assay: in vitro; settings: uninfected MT-4 cells, same protocol as Test A, 5 days, CellTiter-Glo
Method in brief: (§1)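 Cytoprotection read-out: CellTiter-Glo chemiluminescence after 5 days at 37 °C of HIV-IIIb-infected MT-4 cells (m.o.i. 0.003) with compound in 10-point 3-fold dilutions, quadruplicate, 10% FBS. Cytotoxicity (CC50) measured identically without virus.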

[2] = tested on: HIV-IIIb; assay: Test A: Antiviral assay in MT4 cells; format: cell-based, HIV-1; settings: MT-4 cells infected with HIV-IIIb, 5 days, CellTiter-Glo; for % inhibition at 2 μM: percent inhibition of virus-induced cell killing, from dose response curve at 2 uM drug; for inhibition at 2 µM: Human immunodeficiency virus 1, IIIB, MT4, 120 h, read-out: % inhibition at 2 μM, percent inhibition of virus-induced cell killing, from dose response curve at 2 uM drug
[3] = in vitro; settings: human, uninfected MT-4 cells, CC50 (nM), same protocol as Test A, CellTiter-Glo
Method in brief: as §1

SMILES | CC50 [1] | % inhibition at 2 μM [2] | CC50 at 5 days [3] | inhibition at 2 µM [2]
O=C(N[C@@H](Cc1cc(F)cc(F)c1)c1ncccc1-c1ccc(Cl)cc1)C(c1c[nH]c2ccc(F)cc12)C(F)(F)F (single isomer, unassigned) [Example 36G] | 6.93 µM | 0% | – | –
NC(=O)c1cc(-c2cccnc2[C@H](Cc2cc(F)cc(F)c2)NC(=O)Cn2nc(C(F)(F)F)c3c2[C@H]2C[C@H]2C3)ccc1F (single isomer, unassigned) [Example 186] | 16.8 µM | 80% | – | –
NC(=O)c1cc(-c2cccnc2[C@H](Cc2cc(F)cc(F)c2)NC(=O)Cn2nc(C(F)F)c3c2CC2CC32)ccc1F (single isomer, unassigned) [Example 249] | 23.4 µM | 100% | – | –
O=C(Cn1nc(C(F)F)c2c1C1CC1CC2)NC(Cc1cc(F)cc(F)c1)c1ncncc1-c1cnc2[nH]ccc2c1 (single isomer, unassigned) [Example 347] | 19.4 µM | 1% | – | –
O=C(Cn1nc(C(F)F)c2c1C1CC1CC2)NC(Cc1cc(F)cc(F)c1)c1ncncc1-c1cnc2[nH]ccc2c1 (single isomer, unassigned) [Example 348] | 14.2 µM | 103% | – | –
CCC(C(=O)N[C@@H](Cc1cc(F)cc(F)c1)c1ncccc1-c1ccc(F)c(C(N)=O)c1)n1nc(C(F)F)cc1C(F)F (single isomer, unassigned) [Example 484] | 27.4 µM | 25% | – | –
CCCCC(C(=O)N[C@@H](Cc1cc(F)cc(F)c1)c1ncccc1-c1ccc(F)c(C(N)=O)c1)n1ccc(C(F)(F)F)n1 (single isomer, unassigned) [Example 488] | 12.4 µM | 8% | – | –
CCC(C(=O)N[C@@H](Cc1cc(F)cc(F)c1)c1ncccc1-c1ccc(F)c(C(N)=O)c1)n1nc(C(F)(F)F)c2c1CCCC2 (single isomer, unassigned) [Example 531] | 7.4 µM | 98% | – | –
CCC(C(=O)N[C@@H](Cc1cc(F)cc(F)c1)c1ncccc1-c1ccc(F)c(C(N)=O)c1)n1nc(C(F)(F)F)c2c1CCCC2 (single isomer, unassigned) [Example 532] | 12.2 µM | 9% | – | –
NC(=O)c1cc(-c2cccnc2[C@H](Cc2cc(F)cc(F)c2)NC(=O)C(c2ccccc2)C2CCCC2)ccc1F (single isomer, unassigned) [Example 552] | 11 µM | 8% | – | –
CCC(C(=O)N[C@@H](Cc1cc(F)cc(F)c1)c1ncccc1-c1ccc(F)c(C(N)=O)c1)n1cc(C(F)(F)F)cn1 (single isomer, unassigned) [Example 566] | 23.7 µM | 3% | – | –
Cc1cc2ncn(C(CC(F)(F)F)C(=O)N[C@@H](Cc3cc(F)cc(F)c3)c3ncccc3-c3ccc(F)c(C(N)=O)c3)c2cc1C (single isomer, unassigned) [Example 571] | 34.8 µM | 2% | – | –
CCC(C(=O)N[C@@H](Cc1cc(F)cc(F)c1)c1ncccc1-c1ccc(F)c(C(N)=O)c1)n1ccc(C(F)(F)F)n1 (single isomer, unassigned) [Example 573] | 30.1 µM | 18% | – | –
CC(C)CC(C(=O)N[C@@H](Cc1cc(F)cc(F)c1)c1ncccc1-c1ccc(F)c(C(N)=O)c1)n1ccc(C(F)(F)F)n1 (single isomer, unassigned) [Example 582] | 14.4 µM | 5% | – | –
CCC(C(=O)N[C@@H](Cc1cc(F)cc(F)c1)c1ncccc1-c1ccc(F)c(C(N)=O)c1)n1ccnc1C(C)C (single isomer, unassigned) [Example 586] | > 53.2 µM | 1% | – | –
CN(C)C(C(=O)N[C@@H](Cc1cc(F)cc(F)c1)c1ncccc1-c1ccc(F)c(C(N)=O)c1)c1ccc(F)cc1 (single isomer, unassigned) [Example 590] | 38.6 µM | 13% | – | –
CC12CCC(c3c(C(F)(F)F)nn(CC(=O)N[C@@H](Cc4cc(F)cc(F)c4)c4ncccc4-c4ccc(F)c(C(N)=O)c4)c31)C2(C)C (stereo partly drawn) [Example 93B, (S)-5-(2-(2-(3,5-difluorophenyl)-1-(2-(D-4,5,6,7-Tetrahydro-3-trifluoromethyl-7,8,8-trimethyl-1H-4,7-(methano)indazol-1-yl)acetamido)ethyl)pyridin-3-yl)-2-fluorobenzamide] | 8.14 µM | 0% | – | –
NC(=O)c1cc(-c2cccnc2[C@H](Cc2cc(F)cc(F)c2)NC(=O)Cn2nc(C(F)(F)F)c3c2C(O)C2CC32)ccc1F (stereo partly drawn) [Example 155, 5-(2-((1S)-2-(3,5-difluorophenyl)-1-(2-(5-hydroxy-3-(trifluoromethyl)-3b,4,4a,5-tetrahydro-1H-cyclopropa[3,4]cyclopenta[1,2-c]pyrazol-1-yl)acetamido)ethyl)pyridin-3-yl)-2-fluorobenzamide] | 37 µM | 97% | – | –
NC(=O)c1cc(-c2cccnc2[C@H](Cc2cc(F)cc(F)c2)NC(=O)Cn2nc(C(F)(F)F)c3c2C(O)C2CC32)ccc1F (stereo partly drawn) [Example 156, 5-(2-((1S)-2-(3,5-difluorophenyl)-1-(2-(5-hydroxy-3-(trifluoromethyl)-3b,4,4a,5-tetrahydro-1H-cyclopropa[3,4]cyclopenta[1,2-c]pyrazol-1-yl)acetamido)ethyl)pyridin-3-yl)-2-fluorobenzamide] | 39.2 µM | 30% | – | –
NC(=O)c1cc(-c2cccnc2[C@H](Cc2cc(F)cc(F)c2)NC(=O)Cn2nc(C(F)F)c3c2C2CC2C3)ccc1F (stereo partly drawn) [Example 163C, 5-(2-((1S)-1-(2-(3-(difluoromethyl)-4,4-a,5,5a-tetrahydro-1H-cyclopropa[4,5]cyclopenta[1,2-c]pyrazol-1-yl)acetamido)-2-(3,5-difluorophenyl)ethyl)pyridin-3-yl)-2-fluorobenzamide] | 27.4 µM | 105% | – | –
NC(=O)c1cccc(-c2cccnc2[C@H](Cc2cc(F)cc(F)c2)NC(=O)CC2C(=O)Nc3ccccc32)c1 (stereo partly drawn) [Example 192, 3-(2-((1S)-2-(3,5-difluorophenyl)-1-(2-(2-oxoindolin-3-yl)acetamido)ethyl)pyridin-3-yl)benzamide] | 47.6 µM | 2% | – | –
Cc1cc(-c2cccnc2[C@H](Cc2cc(F)cc(F)c2)NC(=O)Cc2c[nH]c3ccc(F)cc23)cnc1F [Example 399] | 12.8 µM | 31% | – | –
CC(C)CC(=O)NS(=O)(=O)c1ccc(-c2cccnc2C(Cc2cc(F)cc(F)c2)NC(=O)Cn2nc(C(F)F)c3c2C(F)(F)C2C[C@H]32)cc1 (stereo partly drawn) [Example 427, (S)—N-(1-(3-(4-(N-(3-methylbutanoyl)sulfamoyl)phenyl)-pyridin-2-yl)-2-(3,5-difluorophenyl)ethyl)-2-(3-(difluoromethyl)-5,6-dihydro-4,5-(methano)-6,6-difluoro-cyclopenta[c]pyrazol-1(4H)-yl)acetamide] | 32.8 µM | 0% | – | –
CNS(=O)(=O)c1ccc(-c2cccnc2C(Cc2cc(F)cc(F)c2)NC(=O)Cn2nc(C(F)F)c3c2C(F)(F)C2C[C@H]32)cc1 (stereo partly drawn) [Example 429, (S)—N-(1-(3-(4-(N-methylsulfamoyl)phenyl)-pyridin-2-yl)-2-(3,5-difluorophenyl)ethyl)-2-(3-(difluoromethyl)-5,6-dihydro-4,5-(methano)-6,6-difluoro-cyclopenta[c]pyrazol-1(4H)-yl)acetamide] | 41.6 µM | 57% | – | –
CCC(C(=O)N[C@@H](Cc1cc(F)cc(F)c1)c1ncccc1-c1ccc(F)c(C(N)=O)c1)n1cc(C(C)=O)c2ccccc21 (stereo partly drawn) [Example 544, 5-(2-((1S)-1-(2-(3-acetyl-1H-indol-1-yl)butanamido)-2-(3,5-difluorophenyl)ethyl)pyridin-3-yl)-2-fluorobenzamide] | > 53.2 µM | 75% | – | –
Cc1[nH]c2ccc(F)cc2c1CC(=O)N[C@@H](Cc1cc(F)cc(F)c1)c1ncccc1-c1ccc(Cl)cc1 [Example 597, (S)—N-(1-(3-(4-chlorophenyl)pyridin-2-yl)-2-(3,5-difluorophenyl)ethyl)-2-(5-fluoro-2-methyl-1H-indol-3-yl)acetamide] | – | – | 8650 nM | 89%
COC1CN(C(=O)c2cc(C(C)C)nn2CC(=O)N[C@@H](Cc2cc(F)cc(F)c2)c2ncccc2-c2ccc(F)c(C(N)=O)c2)C1 [Example 598, (S)-5-(2-(2-(3,5-difluorophenyl)-1-(2-(3-isopropyl-5-(3-methoxyazetidine-1-carbonyl)-1H-pyrazol-1-yl)acetamido)ethyl)pyridin-3-yl)-2-fluorobenzamide] | – | – | > 53200 nM | 3%
NC(=O)c1cc(-c2cccnc2[C@H](Cc2cc(F)cc(F)c2)NC(=O)Cn2c(C(F)(F)F)cc3ccccc32)ccc1F [Example 599, (S)-5-(2-(2-(3,5-difluorophenyl)-1-(2-(2-(trifluoromethyl)-1H-indol-1-yl)acetamido)ethyl)pyridin-3-yl)-2-fluorobenzamide] | – | – | 31600 nM | 2%
Cc1nc2n(CC(=O)N[C@@H](Cc3cc(F)cc(F)c3)c3ncccc3-c3ccc(F)c(C(N)=O)c3)c3ccccc3n2n1 [Example 600, (S)-5-(2-(2-(3,5-difluorophenyl)-1-(2-(2-methyl-4H-benzo[4,5]imidazo[1,2-b][1,2,4]triazol-4-yl)acetamido)ethyl)pyridin-3-yl)-2-fluorobenzamide] | – | – | > 53200 nM | 9%
COc1cccc(CC(=O)N[C@@H](Cc2cc(F)cc(F)c2)c2ncccc2-c2cccc(C(N)=O)c2)c1 [Example 601, (S)-3-(2-(2-(3,5-difluorophenyl)-1-(2-(3-methoxyphenyl)acetamido)ethyl)pyridin-3-yl)benzamide] | – | – | 41900 nM | 22%
